Data from the supplement of paper PMC10307832.

Columns and labels:
Experiment in all cases: relative viability (nuclei count vs DMSO), 5 days (fraction); higher = more cells survive
NCI-H1944 = test system: NCI-H1944
How it was run: (§1)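 Relative viability was taken as the ratio of nuclei in treated wells to nuclei in vehicle wells. Lung cancer cell lines in 1536-well plates received compounds by pin tool one day after seeding, either one drug alone or a fixed anchor-drug dose plus five library-drug doses (not always all listed) in √10 steps. Nuclei were counted on 4× images after 5 days of treatment, and values are medians of duplicate plates.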

LU99A = test system: LU99A
How it was run: as §1

NCI-H1651 = test system: NCI-H1651
How it was run: as §1

NCI-H1734 = test system: NCI-H1734
How it was run: as §1

UMC-11 = test system: UMC-11
How it was run: as §1

NCI-H2228 = test system: NCI-H2228
How it was run: as §1

NCI-H460 = test system: NCI-H460
How it was run: as §1

HCC-366 = test system: HCC-366
How it was run: as §1

NCI-H3122 = test system: NCI-H3122
How it was run: as §1

CAL-12T = test system: CAL-12T
How it was run: as §1

NCI-H2170 = test system: NCI-H2170
How it was run: as §1

RERF-LC-KJ = test system: RERF-LC-KJ
How it was run: as §1

PC-3 [JPC-3] = test system: PC-3 [JPC-3]
How it was run: as §1

LC-2-ad = test system: LC-2-ad
How it was run: as §1

NCI-H1755 = test system: NCI-H1755
How it was run: as §1

NCI-H2405 = test system: NCI-H2405
How it was run: as §1

ChaGo-K-1 = test system: ChaGo-K-1
How it was run: as §1

HCC-78 = test system: HCC-78
How it was run: as §1

ABC-1 = test system: ABC-1
How it was run: as §1

LOU-NH91 = test system: LOU-NH91
How it was run: as §1

NCI-H1793 = test system: NCI-H1793
How it was run: as §1

NCI-H1395 = test system: NCI-H1395
How it was run: as §1

NCI-H2087 = test system: NCI-H2087
How it was run: as §1

`CC1(C)CCC(c2ccc(Cl)cc2)=C(CN2CCN(c3ccc(C(=O)NS(=O)(=O)c4ccc(N[C@H](CCN5CCOCC5)CSc5ccccc5)c(S(=O)(=O)C(F)(F)F)c4)cc3)CC2)C1` [Navitoclax] + COc1cc2c(Oc3ccc(NC(=O)C4(C(=O)Nc5ccc(F)cc5)CC4)cc3F)ccnc2cc1OCCCN1CCOCC1 [Foretinib] (partner 0.25 µM) was tested, and the relative viability (NCI-H1944; first compound 0.005 µM) was 0.872, the relative viability (NCI-H1944; first compound 0.01581 µM) was 0.945 and the relative viability (NCI-H1944; first compound 0.05 µM) was 0.745. For the same molecule, the relative viability (NCI-H1944; first compound 0.1581 µM) was 0.851, the relative viability (NCI-H1944; first compound 0.5 µM) was 0.741 and the relative viability (LU99A; first compound 0.005 µM) was 0.796. The relative viability (LU99A; first compound 0.01581 µM) was 0.886, the relative viability (LU99A; first compound 0.05 µM) was 0.459 and the relative viability (LU99A; first compound 0.1581 µM) was 0.804. It also gave a relative viability (LU99A; first compound 0.5 µM) of 0.799, a relative viability (NCI-H1651; first compound 0.005 µM) of 0.681 and a relative viability (NCI-H1651; first compound 0.01581 µM) of 0.979. For the same molecule, the relative viability (NCI-H1651; first compound 0.05 µM) was 0.442, the relative viability (NCI-H1651; first compound 0.1581 µM) was 0.809 and the relative viability (NCI-H1651; first compound 0.5 µM) was 0.847. The relative viability (NCI-H1734; first compound 0.005 µM) was 0.887, the relative viability (NCI-H1734; first compound 0.01581 µM) was 0.941 and the relative viability (NCI-H1734; first compound 0.1581 µM) was 0.831. For the same molecule, the relative viability (NCI-H1734; first compound 0.5 µM) was 0.906, the relative viability (UMC-11; first compound 0.005 µM) was 0.976 and the relative viability (UMC-11; first compound 0.01581 µM) was 1.14. It also gave a relative viability (UMC-11; first compound 0.05 µM) of 1.18, a relative viability (UMC-11; first compound 0.1581 µM) of 0.937 and a relative viability (UMC-11; first compound 0.5 µM) of 0.66. For the same molecule, the relative viability (NCI-H2228; first compound 0.005 µM) was 0.727, the relative viability (NCI-H2228; first compound 0.01581 µM) was 1.04 and the relative viability (NCI-H2228; first compound 0.1581 µM) was 1.01. The relative viability (NCI-H2228; first compound 0.5 µM) was 0.85, the relative viability (NCI-H460; first compound 0.005 µM) was 0.991 and the relative viability (NCI-H460; first compound 0.01581 µM) was 1.02. The relative viability (NCI-H460; first compound 0.05 µM) was 0.713, the relative viability (NCI-H460; first compound 0.1581 µM) was 1.01 and the relative viability (NCI-H460; first compound 0.5 µM) was 0.941. It also gave a relative viability (HCC-366; first compound 0.005 µM) of 0.98, a relative viability (HCC-366; first compound 0.01581 µM) of 0.82 and a relative viability (HCC-366; first compound 0.1581 µM) of 1. For the same molecule, the relative viability (HCC-366; first compound 0.5 µM) was 0.982, the relative viability (NCI-H3122; first compound 0.005 µM) was 0.936 and the relative viability (NCI-H3122; first compound 0.01581 µM) was 1.04. For the same molecule, the relative viability (NCI-H3122; first compound 0.05 µM) was 0.964, the relative viability (NCI-H3122; first compound 0.1581 µM) was 0.934 and the relative viability (NCI-H3122; first compound 0.5 µM) was 0.966. It also gave a relative viability (CAL-12T; first compound 0.005 µM) of 1.08, a relative viability (CAL-12T; first compound 0.01581 µM) of 1.17 and a relative viability (CAL-12T; first compound 0.05 µM) of 1.16. The relative viability (CAL-12T; first compound 0.1581 µM) was 1.11, the relative viability (CAL-12T; first compound 0.5 µM) was 1.11 and the relative viability (NCI-H2170; first compound 0.005 µM) was 0.969. For the same molecule, the relative viability (NCI-H2170; first compound 0.01581 µM) was 1.02, the relative viability (NCI-H2170; first compound 0.05 µM) was 1.08 and the relative viability (NCI-H2170; first compound 0.1581 µM) was 1.07. The relative viability (NCI-H2170; first compound 0.5 µM) was 0.955, the relative viability (RERF-LC-KJ; first compound 0.005 µM) was 0.841 and the relative viability (RERF-LC-KJ; first compound 0.01581 µM) was 0.896. For the same molecule, the relative viability (RERF-LC-KJ; first compound 0.05 µM) was 0.844, the relative viability (RERF-LC-KJ; first compound 0.1581 µM) was 0.942 and the relative viability (RERF-LC-KJ; first compound 0.5 µM) was 0.849. For the same molecule, the relative viability (PC-3 [JPC-3]; first compound 0.005 µM) was 1.02, the relative viability (PC-3 [JPC-3]; first compound 0.01581 µM) was 1.03 and the relative viability (PC-3 [JPC-3]; first compound 0.05 µM) was 1.12. It also gave a relative viability (PC-3 [JPC-3]; first compound 0.1581 µM) of 1.02, a relative viability (PC-3 [JPC-3]; first compound 0.5 µM) of 1.06 and a relative viability (LC-2-ad; first compound 0.005 µM) of 0.837. The relative viability (LC-2-ad; first compound 0.01581 µM) was 1.29, the relative viability (LC-2-ad; first compound 0.05 µM) was 1.02 and the relative viability (LC-2-ad; first compound 0.1581 µM) was 0.871. For the same molecule, the relative viability (LC-2-ad; first compound 0.5 µM) was 0.887, the relative viability (NCI-H1755; first compound 0.005 µM) was 0.873 and the relative viability (NCI-H1755; first compound 0.01581 µM) was 1.01. The relative viability (NCI-H1755; first compound 0.05 µM) was 0.735, the relative viability (NCI-H1755; first compound 0.1581 µM) was 0.901 and the relative viability (NCI-H1755; first compound 0.5 µM) was 0.855. For the same molecule, the relative viability (NCI-H2405; first compound 0.005 µM) was 1.04, the relative viability (NCI-H2405; first compound 0.01581 µM) was 1.09 and the relative viability (NCI-H2405; first compound 0.05 µM) was 0.998. The relative viability (NCI-H2405; first compound 0.1581 µM) was 1.04, the relative viability (NCI-H2405; first compound 0.5 µM) was 1.05 and the relative viability (ChaGo-K-1; first compound 0.005 µM) was 1.04. For the same molecule, the relative viability (ChaGo-K-1; first compound 0.01581 µM) was 0.94, the relative viability (ChaGo-K-1; first compound 0.05 µM) was 0.537 and the relative viability (ChaGo-K-1; first compound 0.1581 µM) was 0.9. For the same molecule, the relative viability (ChaGo-K-1; first compound 0.5 µM) was 0.932, the relative viability (HCC-78; first compound 0.005 µM) was 0.596 and the relative viability (HCC-78; first compound 0.01581 µM) was 0.663. It also gave a relative viability (HCC-78; first compound 0.1581 µM) of 0.591, a relative viability (HCC-78; first compound 0.5 µM) of 0.595 and a relative viability (ABC-1; first compound 0.005 µM) of 1.32. The relative viability (ABC-1; first compound 0.01581 µM) was 1.17, the relative viability (ABC-1; first compound 0.05 µM) was 1.12 and the relative viability (ABC-1; first compound 0.1581 µM) was 1.07. It also gave a relative viability (ABC-1; first compound 0.5 µM) of 1.05, a relative viability (LOU-NH91; first compound 0.005 µM) of 0.955 and a relative viability (LOU-NH91; first compound 0.01581 µM) of 0.932. The relative viability (LOU-NH91; first compound 0.05 µM) was 0.941, the relative viability (LOU-NH91; first compound 0.1581 µM) was 0.911 and the relative viability (LOU-NH91; first compound 0.5 µM) was 0.824. For the same molecule, the relative viability (NCI-H1793; first compound 0.005 µM) was 0.616, the relative viability (NCI-H1793; first compound 0.01581 µM) was 0.711 and the relative viability (NCI-H1793; first compound 0.1581 µM) was 0.608. The relative viability (NCI-H1793; first compound 0.5 µM) was 0.622, the relative viability (NCI-H1395; first compound 0.005 µM) was 1.15 and the relative viability (NCI-H1395; first compound 0.01581 µM) was 1.19. For the same molecule, the relative viability (NCI-H1395; first compound 0.05 µM) was 0.865, the relative viability (NCI-H1395; first compound 0.1581 µM) was 0.986 and the relative viability (NCI-H1395; first compound 0.5 µM) was 1.12. For the same molecule, the relative viability (NCI-H2087; first compound 0.005 µM) was 1.07, the relative viability (NCI-H2087; first compound 0.01581 µM) was 1.08 and the relative viability (NCI-H2087; first compound 0.1581 µM) was 0.953. It also gave a relative viability (NCI-H2087; first compound 0.5 µM) of 1.07.
